Measurements from patent US20190127314A1, “HOMOVANILLIC ACID ESTER FOR REDUCING OR INHIBITING FATTY ACID ABSORPTION IN THE SMALL INTESTINE” (SYMRISE AG, priority 2016, published 2019).

Test system: differentiated Caco-2-cells
Assay: Intestinal fatty acid resorption, QBT Fatty Acid Uptake Kit (BODIPY-dodecanoic acid)
Format: cell-based
Settings: Homo sapiens, fatty acid resorption AUC as percent of the vehicle treated control, 30 min preincubation, fluorescence measured over 1 h; for activity at 1 µM: 1 μM substance; for activity at 100 µM: 100 μM substance
Description: The ability of modulating the fatty acid resorption/absorption (as described in the scope of the present invention) of a substance or substance mixture can be determined or, respectively, evaluated e.g. according to the method described herein, by using Caco-2-cells (s. also the example section of the present text). Preferably, in the scope of the present text it is to be assumed that substances reducing or, respectively, inhibiting the fatty acid resorption (preferably when performing the method described herein, s. example section) are also suitable for the uses or, respectively, applications according to the invention and described herein. Preferably, the human colon cell line Caco-2 (ATCC-number HTB-37) is used, after differentiation to a phenotype related to entereocytes, as cell model for the resorption of free fatty acids into the small intestine. (Caco-2-cells are preferably cultivated at 37° C. and 5% CO2 content with Dulbecco's Modified Eagles Medium (DMEM) with 10% FBS, 2% L-Glutamine and 1% Penicillin/Streptomycin. The differentiation to enterocytes is preferably performed by an 18-days cultivation of the cells after reaching confluence.)
The resorption of free fatty acids in differentiated Caco-2-cells was analysed with the QBT Fatty Acid Uptake Kit (Molecular Devices Corporation, Germany), which uses the fluorescent fatty acid analogue BODIPY-dodecanoic acid. For preparing the assay, the differentiated Caco-2-cells are subjected to a one hour incubation in serum-free medium at standard cell culture conditions of a hunger phase. Subsequently, the test substances were added at 1 or 100 μM, diluted in Hank's balanced salt solution (HBSS of Lonza, Biozym-order number 882010)-buffer, treated with 20 mM HEPES (diluted from a 1M solution of Gibco, Thermo Fisher-order number 15630056) (in the following described as HBSS/HEPES-buffer). Controls were only treated with HBSS/HEPES-buffer. After a 30 minute preincubation at 37° C., the fluorescent fatty acid analogue was added, which was diluted in HBSS/HEPES-buffer (supplemented with 0.2% fatty acid free BSA [Sigma Aldrich, Germany]). The fluorescence signals were measured after excitation with 485 nm at an emission wavelength of 515 nm during a time of 1 h in a microtiter plate-reader (Synergy; BioTek, Germany). Starting from a time-signal-intensity curve resulting from the measurement, the area under the curve (AUC) was calculated to determine the cellular fatty acid resorption after treatment with the substances. The results obtained thereby are indicated as percent related to the control treatment (s. table 1).
Table 1: Results of the measurement of the inhibition of the fatty acid resorption in Caco-2-cells. The calculated area under the curve (AUC) is shown for tests at each 1 and 100 μM substance used (as percent of the vehicle treated control).
With the test for measurement shown in example 2, in total 25 compounds of formula (I) (as described herein) were measured for their inhibitory activity regarding the fatty acid resorption in Caco-2-cells for each two concentrations (1 and 100 μM) in triple determination. The obtained activity data was subsequently used for a structure-effect-analysis by using the software-package StarDrop (Optibrium Ltd) and Vortex (Dotmatics Ltd.). Thereby, an R-group analysis with the basic structure according to formula (II) was performed.

| Compound | activity at 1 µM [%] | activity at 100 µM [%] |
| --- | --- | --- |
| COc1cc(CC(=O)OCCc2ccccc2)ccc1O [Compound 1, 2-Phenylethyl-2-(4-hydroxy-3-methoxy-phenyl)acetate] | 103 | 103 |
| COc1cc(CC(=O)OC/C=C/c2ccccc2)ccc1O [Compound 2, [(E)-Cinnamyl]-2-(4-hydroxy-3-methoxy-phenyl)acetate] | 97.6 | 94.6 |
| CCCC(CC)OC(=O)Cc1ccc(O)c(OC)c1 (stereo not drawn) [Compound 3, 1-Ethylbutyl-2-(4-hydroxy-3-methoxy-phenyl)acetate] | 87.1 | 62.5 |
| COc1cc(CC(=O)OCC=C(C)C)ccc1O [Compound 4, 3-Methylbut-2-enyl-2-(4-hydroxy-3-methoxy-phenyl)acetate] | 101 | 80.9 |
| CCC/C=C/COC(=O)Cc1ccc(O)c(OC)c1 [Compound 5, [(E)-Hex-2-enyl]-2-(4-hydroxy-3-methoxy-phenyl)acetate] | 101 | 96.5 |
| CC/C=C\CCOC(=O)Cc1ccc(O)c(OC)c1 [Compound 6, [(Z)-Hex-3-enyl]-2-(4-hydroxy-3-methoxy-phenyl)acetate] | 99.9 | 90.4 |
| COc1cc(CC(=O)OC(C)C)ccc1O [Compound 7, Isopropyl-2-(4-hydroxy-3-methoxy-phenyl)acetate] | 91.6 | 61.6 |
| CCC(C)OC(=O)Cc1ccc(O)c(OC)c1 (stereo not drawn) [Compound 8, sec-Butyl-2-(4-hydroxy-3-methoxy-phenyl)acetate] | 92 | 61.9 |
| COc1cc(CC(=O)OCC(C)C)ccc1O [Compound 9, Isobutyl-2-(4-hydroxy-3-methoxy-phenyl)acetate] | 100 | 68 |
| COc1cc(CC(=O)OCCC(C)C)ccc1O [Compound 10, Isopentyl-2-(4-hydroxy-3-methoxy-phenyl)acetate] | 99.8 | 82.7 |
| CCC(C)COC(=O)Cc1ccc(O)c(OC)c1 (stereo not drawn) [Compound 11, 2-Methylbutyl-2-(4-hydroxy-3-methoxy-phenyl)acetate] | 99 | 79 |
| CCCCC(C)OC(=O)Cc1ccc(O)c(OC)c1 (stereo not drawn) [Compound 12, 1-Methylpentyl-2-(4-hydroxy-3-methoxy-phenyl)acetate] | 89.5 | 53.3 |
| CCCCCCCOC(=O)Cc1ccc(O)c(OC)c1 [Compound 13, Heptyl-2-(4-hydroxy-3-methoxy-phenyl)acetate] | 103 | 92.7 |
| CCCCCC(C)OC(=O)Cc1ccc(O)c(OC)c1 (stereo not drawn) [Compound 14, 1-Methyl hexyl-2-(4-hydroxy-3-methoxy-phenyl)acetate] | 93.4 | 67.5 |
| COc1cc(CC(=O)O[C@@H]2C[C@H](C)CC[C@H]2C(C)C)ccc1O [Compound 15, (2-Isopropyl-5-methyl-cyclohexyl)-2-(4-hydroxy-3-methoxy-phenyl)acetate] | 95.5 | 58.1 |
| CCOC(=O)Cc1ccc(O)c(OC)c1 [Compound 16, Ethyl-2-(4-hydroxy-3-methoxy-phenyl)acetate] | 105 | 93.8 |
| CCCOC(=O)Cc1ccc(O)c(OC)c1 [Compound 17, Propyl-2-(4-hydroxy-3-methoxy-phenyl)acetate] | 101 | 89.7 |
| CCCCOC(=O)Cc1ccc(O)c(OC)c1 [Compound 18, Butyl-2-(4-hydroxy-3-methoxy-phenyl)acetate] | 102 | 90.7 |
| CCCCCOC(=O)Cc1ccc(O)c(OC)c1 [Compound 19, Pentyl-2-(4-hydroxy-3-methoxy-phenyl)acetate] | 101 | 92.9 |
| CCCCCCOC(=O)Cc1ccc(O)c(OC)c1 [Compound 20, Hexyl-2-(4-hydroxy-3-methoxy-phenyl)acetate] | 102 | 91.4 |
| CCC(CC)COC(=O)Cc1ccc(O)c(OC)c1 [Compound 23, 2-Ethylbutyl-2-(4-hydroxy-3-methoxy-phenyl)acetate] | 99.7 | 62.1 |
